Earlier results in patent US20230000835A1, “LYSINE-SPECIFIC HISTONE DEMETHYLASE INHIBITORS FOR THE TREATMENT OF MYELOPROLIFERATIVE NEOPLASMS” (Imago Biosciences, Inc., priority 2019, published 2023).

Test system: primary myelofibrosis patients
Settings: 50 to 100 mg/day in combination with prednisone; cited from earlier work

## O=C1CCC(N2C(=O)c3ccccc3C2=O)C(=O)N1 (centres unmarked) [Thalidomide]
  primary myelofibrosis patients with improved anemia and thrombocytopenia: approximately 60%
  primary myelofibrosis patients with reduced spleen size: approximately 20%
